Assay results taken from US9938240B2, “Fluorinated derivatives of 3-hydroxypyridin-4-ones” (Apotex Technologies Inc., priority 2009, dated 2018).

Columns and labels:
[1] = Stepwise formation constants for Cu-ligand system by potentiometric titration; format: physicochemical; conditions: for pCu^2+: pH 7.4, ligand 10 μM, metal 1 μM
Description: In a typical experiment, the sample solution was prepared by the following method: Apo7041 (126.1 mg, 0.50 mmol) was weighed into a 50 mL volumetric flask, and about 35 mL of a mixed solvent (0.1 M NaCl aqueous:MeOH, 1:1, v:v) was added. The mixture was sonicated for 10 min to give a clear colorless solution. The copper stock solution (atomic absorption standard, Aldrich, 6.33 mL, 0.10 mmol) was pipetted into the solution. More of the mixed solvent was added to volume and the resulting solution was vortexed to mix. The molar ratio between the total copper and the total Apo7041 was 1/5. 40 mL of the solution was transferred into a T70 titration cell by using a 10 mL digital pipet. A 6.000 N sodium hydroxide solution (300 μL) was added, and the pH (12.17) of the solution was recorded. The solution was allowed to equilibrate at 22° C. for 5 min.
The solution was then titrated against a 6.000 N hydrochloric acid solution at 22° C. by using a Mettler Toledo T70 autotitrator, until the pH reached 1.5. The volume of acid added and the pH reading were recorded. Thus, 533 measurements were taken for this experiment.
The data set of pH vs. acid volume for Cu-Apo7041 system was analyzed using Hyperquad 2000 software (version 2.1, Peter Gans, University of Leeds). The formation constants for Cu-Apo7041 system were optimized using the model shown in the first column of Table 29C. The results are shown in the second and third column.
pM^n+ is defined as −log [M(H2O)m]^n+ at physiological conditions, i.e.: pH 7.4, a ligand concentration of 10 μM, and a metal concentration of 1 μM. To calculate pM^n+ for a MLn system, βn and pKa values are needed (βn are the formation constants for M^n++n L^−⇄MLn; pKa are the equilibrium constants for L^−+n H^+⇄LHn^(n-1)+). The pM^n+ is calculated using the HySS software (HYSS© 2000 Protonic Software).

[2] = pKa determination by potentiometric titration; format: physicochemical
Description: The pKa values of ligands were determined by potentiometric titration when a ligand concentration >1×10^−2 M in water could be prepared. In a typical experiment, the sample solution (1.00×10^−2 M) was prepared by the following method: Apo7041 (125.4 mg) was weighed into a 50 mL volumetric flask, and about 40 mL of 0.1 M NaCl was added. The mixture was sonicated for 10 min to give a clear colorless solution. More of the 0.1 M NaCl was added to volume and the resulting solution was vortexed to mix. 40 mL of the solution was transferred into a T70 titration cell by using a 10 mL digital pipet A 6.000 N sodium hydroxide solution (127 μL, 1.9 equiv) was added, and the pH (11.82) of the solution was recorded. The solution was allowed to equilibrate at 22° C. for 5 min.
The solution was then titrated against a 6.000 N hydrochloric acid solution at 22° C. by using a Mettler Toledo T70 autotitrator, until the pH reached 1.5. The volume of acid added and the pH reading were recorded. Thus, 501 measurements were taken for this experiment.
The data set of pH vs. acid volume was analyzed using Hyperquad 2000 software (version 2.1, Peter Gans, University of Leeds). The pKa values were obtained using the model: L^−+H^+⇄LH (pKa1), LH+H^+⇄LH2^+, and LH2^++H^+⇄LH3^2+ (pKa3).
The pKa values of Apo7041 in the same mixed solvent were also determined by potentiometric titration using the procedure described in Example 1.

[3] = pKa determination by potentiometric titration; format: physicochemical; conditions: 0.1M aqueous NaCl/MeOH, 1/1, v/v
[4] = Distribution coefficient determination, D7.4 (1-octanol / K2HPO4 buffer); format: physicochemical; conditions: 1-octanol / K2HPO4 buffer 50 mM pH 7.4
Description: K2HPO4 buffer (50 mM, pH=7.4) and 1-octanol were used as the aqueous phase and the organic phase, respectively. The K2HPO4 buffer and 1-octanol were mixed, and pre-saturated with each other before use.
In a typical experiment, an aqueous solution of Apo6995 (3-hydroxy-2-methyl-1-(2,2,2-trifluoroethyl)pyridin-4(1H)-one) was prepared by weighing out 3 mg of the compound into a 10-mL test-tube. It was then mixed with K2HPO4 buffer (2 mL) and sonicated for 30 minutes with frequent vortexing. The solution was then filtered through HPLC syringe filter (4 mm PVDF syringe filter 0.45 μM) to obtain the aqueous solution.
One mL of this aqueous solution was pipetted out into another 10-mL test-tube and mixed with 1 mL of 1-octanol. The mixture was then vortexed for 1 hour. The solution was centrifuged at 2000 rpm for 10 minutes. A small amount of the lower aqueous layer was carefully pipetted out and analyzed by HPLC to obtain the peak height (HF). The distribution coefficient, D7.4, was calculated using the following equation: D7.4=(HI−HF)/HF.

[5] = Pharmacokinetics following oral administration to rats; format: in vivo, male Sprague Dawley rats; conditions: rat, oral 50 mg/kg in 0.5% CMC; for Brain AUC_D_obs / Brain Cmax_D / Plasma AUC_D_obs / Plasma Cmax_D: dose-normalized
Description: Adult male Sprague Dawley rats (275-325 g, Charles River Laboratories, Saint Constant, Quebec) were orally dosed with 50 mg/kg of test compound (Apo7323, Apo7433, Apo7435 or Apo7448) suspended in 0.5% carboxymethylcellulose (CMC) in water. For each test compound, samples were obtained from the plasma and brain of three animals per time point, at 0 (dosed with 0.5% CMC), 0.25, 0.5, 1, 2, 4, 8 and 12 h following administration. The concentration of the compound in rat plasma and brain samples was determined by HPLC-UV. Pharmacokinetic parameters were computed using the PKPlus Module in GastroPlus® ver. 8.0 (Simulations Plus Inc., Lancaster, Calif.). Calculation method: linear trapezoidal with linear interpolation.

[6] = 0.1M aqueous NaCl/MeOH, 1/1, v/v
[7] = 0.1M aqueous NaCl/MeOH, 1/1, v/v, listed as drawing 104
[8] = potentiometric, 0.1 M NaCl, 22° C.
[9] = 0.1M aqueous NaCl (Table 1, Fe3+ chelation, footnote b)

CN(C)C(c1c(O)c(=O)ccn1C)C(F)(F)F (centres unmarked) [Apo7041, 2-[1-(dimethylamino)-2,2,2-trifluoroethyl]-3-hydroxy-1-methylpyridin-4(1H)-one]
Log β120 (Cu2+) [1, 6]: 17.3
Log β121 (Cu2+) [1, 6]: 23.0
Log β122 (Cu2+) [1, 6]: 27.9
Logβ111 (Cu2+) [1, 6]: Logβ111 = 14.1
Log β120 (Cu2+) [1, 7]: Logβ120 = 17.3
Log β121 (Cu2+) [1, 7]: Logβ121 = 23.0
Log β122 (Cu2+) [1, 7]: Logβ122 = 27.9
pCu^2+ [1]: pCu^2+ = 7.7
pKa1 + pKa2 ([2]; 0.1 M NaCl): 12.91
pKa1 + pKa2 + pKa3 ([2]; 0.1 M NaCl): 14.57
pKa1 + pKa2 + pKa3 [2, 6]: 15.3
pKa3 [2, 6]: pKa3 = 2.0
pKa1 [2, 7]: pKa1 = 10.1
pKa1 [2, 8]: 9.39
pKa2 [2, 8]: 3.52
pKa3 [2, 8]: 1.66
pKa1 [3]: 10.1
pKa1 + pKa2 [3]: 13.3
pKa2 [3]: pKa2 = 3.2

CN(C)Cc1c(O)c(=O)ccn1CC(F)(F)F [Apo7067, 2-[(dimethylamino)methyl]-3-hydroxy-1-(2,2,2-trifluoroethyl)pyridin-4(1H)-one]
D7.4 [4]: 2.82
logD ([4]; read-out: Log D7.4): 0.45

O=c1ccn(CC(F)(F)F)c(CN2CCOCC2)c1O [Apo7323, 3-hydroxy-2-(morpholinomethyl)-1-(2,2,2-trifluoroethyl)pyridin-4(1H)-one]
CL [5]: 33.2 mL/min/kg
Brain AUC_D_obs [5]: 1.010 kg·µg·h/mL/mg
Brain Cmax_D [5]: 0.218 kg·µg/mL/mg
Plasma AUC_D_obs [5]: 1.630 kg·µg·h/mL/mg
Plasma Cmax_D [5]: 0.400 kg·µg/mL/mg

Cc1c(O)c(=O)c(C(N2CCOCC2)C(F)(F)F)cn1C (centres unmarked) [Apo7435, 3-hydroxy-1,2-dimethyl-5-(2,2,2-trifluoro-1-morpholinoethyl)pyridin-4(1H)-one]
CL [5]: 110 mL/min/kg
Brain AUC_D_obs [5]: 0.122 kg·µg·h/mL/mg
Brain Cmax_D [5]: 0.102 kg·µg/mL/mg
Plasma AUC_D_obs [5]: 0.516 kg·µg·h/mL/mg
Plasma Cmax_D [5]: 0.312 kg·µg/mL/mg

Cc1c(O)c(=O)ccn1C [Deferiprone, 3-hydroxy-1,2-dimethylpyridin-4(1H)-one, reference compound]
Log β120 (Cu2+) [1, 6]: 20.5
Logβ1 (Cu2+) [1, 6]: Logβ1 = 10.8
Logβ2 (Cu2+) [1, 6]: Logβ2 = 20.5
pCu^2+ [1]: pCu^2+ = 9.9
pKa1 [2, 9]: pKa1 = 9.92
pKa2 [2, 9]: pKa2 = 3.55
D7.4 [4]: 0.17
Log D7.4 [4]: −0.77
pKa1 [3]: pKa1 = 10.6
pKa2 [3]: pKa2 = 4.0
